Results: ChEMBL document CHEMBL4425153, “Matched and mixed cap derivatives in the tetracyclic indole class of HCV NS5A inhibitors” (Bioorg Med Chem Lett, 2016)
Numbering of substitutions follows the chain as printed.

What was measured:
[1] = target: T1, Nonstructural protein 5A (Hepatitis C virus) (UniProt Q5L478); experiment: Inhibition of wild type HCV genotype 2b NS5A assessed as reduction in viral RNA level by cell based real time PCR method; conditions: Hepatitis C virus subtype 2b
T1 sequence (whole entry): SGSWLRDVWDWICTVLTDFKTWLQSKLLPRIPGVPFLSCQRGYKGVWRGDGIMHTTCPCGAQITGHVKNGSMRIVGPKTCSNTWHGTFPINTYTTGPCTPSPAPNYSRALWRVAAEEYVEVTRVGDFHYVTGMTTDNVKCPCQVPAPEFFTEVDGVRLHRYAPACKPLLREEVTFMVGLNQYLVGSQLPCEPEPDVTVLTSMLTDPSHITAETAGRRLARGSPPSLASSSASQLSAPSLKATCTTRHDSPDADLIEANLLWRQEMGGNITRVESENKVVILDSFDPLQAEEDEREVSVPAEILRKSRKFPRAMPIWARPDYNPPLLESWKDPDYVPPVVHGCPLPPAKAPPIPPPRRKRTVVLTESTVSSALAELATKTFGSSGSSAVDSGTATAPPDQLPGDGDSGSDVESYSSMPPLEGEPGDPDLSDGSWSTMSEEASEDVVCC

[2] = system: T2, Nonstructural protein 5A (Hepatitis C virus), Q5L478 [Y93H]; experiment: Inhibition of HCV genotype 1a NS5A Y93H mutant assessed as reduction in viral RNA level by cell based real time PCR method; conditions: Hepatitis C virus subtype 1a
T2 sequence (whole entry): T1 sequence (whole entry) with Y93H

[3] = system: Nonstructural protein 5A (Hepatitis C virus), Q5L478 [UNDEFINED MUTATION]; experiment: Inhibition of HCV genotype 1a NS5A L31V mutant assessed as reduction in viral RNA level by cell based real time PCR method; conditions: Hepatitis C virus subtype 1a
[4] = target: T1, Nonstructural protein 5A (Hepatitis C virus); experiment: Inhibition of wild type HCV genotype 1a NS5A assessed as reduction in viral RNA level by cell based real time PCR method; conditions: Hepatitis C virus subtype 1a

Structure (SMILES) | EC90 [1] [nM] | EC90 [2] [nM] | EC90 [3] [nM] | EC90 [4] [nM]
COC(=O)N[C@H](C(=O)N1CCC[C@H]1c1ncc(-c2ccc3c(c2)O[C@@H](c2ccccc2)n2c-3cc3cc(-c4cnc([C@@H]5CCCN5C(=O)[C@@H](NC(=O)OC)C5CCC(F)(F)CC5)[nH]4)ccc32)[nH]1)C(C)C | 23 | 34 | 0.89 | 0.018
COCC[C@H](NC(=O)OC)C(=O)N1CCC[C@H]1c1ncc(-c2ccc3c(c2)O[C@@H](c2ccccc2)n2c-3cc3cc(-c4cnc([C@@H]5CCCN5C(=O)[C@H](CCOC)NC(=O)OC)[nH]4)ccc32)[nH]1 | 91 | 46 | 2.1 | 0.061
COC(=O)N[C@H](C(=O)N1CCC[C@H]1c1ncc(-c2ccc3c(c2)O[C@@H](c2ccccc2)n2c-3cc3cc(-c4cnc([C@@H]5CCCN5C(=O)[C@@H](NC(=O)OC)C5CCCCC5)[nH]4)ccc32)[nH]1)C1CCCCC1 | > 100 | > 100 | 11 | 0.1
COC(=O)N[C@H](C(=O)N1CCC[C@H]1c1ncc(-c2ccc3c(c2)O[C@@H](c2ccccc2)n2c-3cc3cc(-c4cnc([C@@H]5CCCN5C(=O)[C@@H](NC(=O)OC)[C@@H](C)O)[nH]4)ccc32)[nH]1)[C@@H](C)O | > 100 | > 100 | > 100 | > 1
COC(=O)N[C@H](C(=O)N1CCC[C@H]1c1ncc(-c2ccc3c(c2)O[C@@H](c2ccccc2)n2c-3cc3cc(-c4cnc([C@@H]5CCCN5C(=O)[C@@H](NC(=O)OC)C5CCCC5)[nH]4)ccc32)[nH]1)C1CCCC1 | 52 | > 100 | 4.1 | 0.014
CN(C)[C@@H](C(=O)N1CCC[C@H]1c1ncc(-c2ccc3c(c2)O[C@@H](c2ccccc2)n2c-3cc3cc(-c4cnc([C@@H]5CCCN5C(=O)[C@@H](c5ccc(F)cc5)N(C)C)[nH]4)ccc32)[nH]1)c1ccc(F)cc1 | > 100 | > 100 | > 100 | 0.98
COC(=O)N[C@H](C(=O)N1CCC[C@H]1c1ncc(-c2ccc3c(c2)O[C@@H](c2ccccc2)n2c-3cc3cc(-c4cnc([C@@H]5CCCN5C(=O)[C@@H](NC(=O)OC)C5CCOCC5)[nH]4)ccc32)[nH]1)C(C)C | 9 | 11 | 0.6 | 0.06
CN(C)[C@@H](C(=O)N1CCC[C@H]1c1ncc(-c2ccc3c(c2)O[C@@H](c2ccccc2)n2c-3cc3cc(-c4cnc([C@@H]5CCCN5C(=O)[C@@H](c5ccccc5)N(C)C)[nH]4)ccc32)[nH]1)c1ccccc1 | 0.87 | > 100 | 2.1 | 0.3
COC(=O)N[C@H](C(=O)N1CCC[C@H]1c1ncc(-c2ccc3c(c2)O[C@@H](c2ccccc2)n2c-3cc3cc(-c4cnc([C@@H]5CCCN5C(=O)C5(NC(=O)OC)CCCCC5)[nH]4)ccc32)[nH]1)C(C)C | > 100 | > 100 | 14.7 | 0.035
COC(=O)N[C@H](C(=O)N1CCC[C@H]1c1ncc(-c2ccc3c(c2)cc2n3[C@H](c3ccccc3)Oc3cc(-c4cnc([C@@H]5CCCN5C(=O)[C@@H](NC(=O)OC)[C@@H](C)OC)[nH]4)ccc3-2)[nH]1)C(C)C | 5 | 50 | 1.1 | 0.062
COC(=O)N[C@@H](C)C(=O)N1CCC[C@H]1c1ncc(-c2ccc3c(c2)O[C@@H](c2ccccc2)n2c-3cc3cc(-c4cnc([C@@H]5CCCN5C(=O)[C@H](C)NC(=O)OC)[nH]4)ccc32)[nH]1 | > 100 | > 100 | 6.4 | 0.042
COC(=O)N[C@@H](CC1CCOCC1)C(=O)N1CCC[C@H]1c1ncc(-c2ccc3c(c2)cc2n3[C@H](c3ccccc3)Oc3cc(-c4cnc([C@@H]5CCCN5C(=O)[C@@H](NC(=O)OC)C(C)C)[nH]4)ccc3-2)[nH]1 | 8.9 | 24 | 0.33 | 0.014
